Several values for one entry are separate records, joined by “and”; a condition that tells them apart may be missing. Equal values may be shown once.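 All cell lines were grown in 96-well plates and treated with compound for 48 hours. Here, GI50 denotes the concentration required for 50% inhibition of growth.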 Activity calls are given as the source filed them. Cut-off read from the data, not from the text of the source: active = GI50 up to about 1.1 µM and inactive = higher.
Tests used:
Test in all cases: NCI anticancer screen, dose series, 48 h
[1] = test system: NCI-H460
[2] = test system: M14
[3] = test system: RXF 393
[4] = test system: SK-MEL-5
[5] = test system: U-251
[6] = test system: MOLT-4
[7] = test system: TK-10
[8] = test system: RPMI-8226
[9] = test system: A498
[10] = test system: PC-3
[11] = test system: HCT-116
[12] = test system: ACHN
[13] = test system: SNB-19
[14] = test system: CAKI-1
[15] = test system: SNB-75
[16] = test system: SK-OV-3
[17] = test system: OVCAR-5
[18] = test system: CCRF-CEM
[19] = test system: NCI-H23
[20] = test system: HOP-92

Compound	GI50 [1]	GI50 [2]	GI50 [3]	GI50 [4]	GI50 [5]	GI50 [6]	GI50 [7]	GI50 [8]	GI50 [9]	GI50 [10]	GI50 [11]	GI50 [12]	GI50 [13]	GI50 [14]	GI50 [15]	GI50 [16]	GI50 [17]	GI50 [18]	GI50 [19]	GI50 [20]
COc1cc(Br)c(CC2C3=C(CCN2C(=O)C2CCC2)CC2(CC3)OCCO2)cc1O (stereo not given)	50.2 µM (inactive)	62.5 µM (inactive)	4.84 µM (inactive)	35.3 µM (inactive)	> 100 µM (inactive)	43.3 µM (inactive)	29.2 µM (inactive)	36.6 µM (inactive)	62.2 µM (inactive)	46.6 µM (inactive)	72.8 µM (inactive)	98.4 µM (inactive)	> 100 µM (inactive)	68.4 µM (inactive)	17.2 µM (inactive)	68.2 µM (inactive)	> 100 µM (inactive)	52.6 µM (inactive)	28.8 µM (inactive)	56.4 µM (inactive)
CSc1nc(SC)c2c(C)cn(C3OC(C)C(O)C(O)C3O)c2n1 (stereo not given)	43.1 µM (inactive)	87.1 µM (inactive)	> 100 µM (inactive)	63.4 µM (inactive)	62.7 µM (inactive)	39.3 µM (inactive)	62.2 µM (inactive)	42.4 µM (inactive)	27.9 µM (inactive)	43.9 µM (inactive)	> 100 µM (inactive)	58.2 µM (inactive)	57 µM (inactive)	< 0.01 µM (active)	52.6 µM (inactive)	> 100 µM (inactive)	> 100 µM (inactive)	45.7 µM (inactive)	94 µM (inactive)	32.6 µM (inactive)
Cc1n[nH]c(C(F)(F)F)c1/N=N/N1CCOCC1	4.27 µM (inactive)	14.7 µM (inactive)	12.5 µM (inactive)	2.92 µM (inactive)	12 µM (inactive)	1.84 µM (inactive)	12 µM (inactive)	0.873 µM (active)	17.4 µM (inactive)	7.16 µM (inactive)	1.94 µM (inactive)	4.52 µM (inactive)	15.2 µM (inactive)	1.9 µM (inactive)	12.5 µM (inactive)	16.6 µM (inactive)	6.37 µM (inactive)	0.423 µM (active)	4.06 µM (inactive)	2.42 µM (inactive)
CCN(CC)CCNc1ccc2nnn3c4ccc(O)cc4c(=O)c1c23	0.0314 µM (active)	6.65 µM (inactive)	0.603 µM (active)	1.64 µM (inactive)	2.86 µM (inactive)	0.0407 µM (active)	5.56 µM (inactive)	2 µM (inactive)	8.83 µM (inactive)	3.09 µM (inactive)	0.935 µM (active)	0.745 µM (active)	5.52 µM (inactive)	0.69 µM (active)	2.07 µM (inactive)	8.22 µM (inactive)	8.02 µM (inactive)	0.586 µM (active)	5.73 µM (inactive)	4.35 µM (inactive)
C=C(Cl)C(Cl)(CBr)CCC(Br)C(C)(C)Cl (stereo not given)	2.34 µM (inactive) and 1.57 µM (inactive) and 1.45 µM (inactive)	18.7 µM (inactive) and 15.6 µM (inactive) and 26.7 µM (inactive)	991 nM (active) and 190 nM (active) and 1.11 µM (active)	14.9 µM (inactive) and 12.7 µM (inactive) and 12.4 µM (inactive)	277 nM (active) and 1.41 µM (inactive) and 615 nM (active)	20.6 µM (inactive) and 10.1 µM (inactive) and 13.5 µM (inactive)	3.43 µM (inactive) and 1.93 µM (inactive) and 2.07 µM (inactive)	149 nM (active) and 221 nM (active) and 485 nM (active)	1.63 µM (inactive) and 2.79 µM (inactive) and 2.03 µM (inactive)	1.6 µM (inactive) and 904 nM (active) and 1 µM (active)	508 nM (active) and 1.95 µM (inactive) and 448 nM (active)	1.7 µM (inactive) and 1.18 µM (inactive) and 1.32 µM (inactive)	2.41 µM (inactive) and 863 nM (active) and 3.49 µM (inactive)	217 nM (active) and 1.02 µM (active) and 828 nM (active)	1.64 µM (inactive) and 834 nM (active) and 416 nM (active)	2.36 µM (inactive) and 27.2 µM (inactive)	1.93 µM (inactive) and 14.7 µM (inactive) and 3.42 µM (inactive)	5.08 µM (inactive) and 12.5 µM (inactive) and 4.5 µM (inactive)	22.4 µM (inactive) and 16.3 µM (inactive) and 12 µM (inactive)	2.63 µM (inactive) and 1.42 µM (inactive) and 1.35 µM (inactive)
O=C(NCCc1n[nH]c2c1C(=O)C=C(Nc1ccccc1)C2=O)OCc1ccccc1	> 100 µM (inactive)	> 100 µM (inactive)	> 100 µM (inactive)	> 100 µM (inactive)	> 100 µM (inactive)	> 100 µM (inactive)	> 100 µM (inactive)	> 100 µM (inactive)	> 100 µM (inactive)	> 100 µM (inactive)	97.3 µM (inactive)	> 100 µM (inactive)	> 100 µM (inactive)	> 100 µM (inactive)	> 100 µM (inactive)	> 100 µM (inactive)	> 100 µM (inactive)	> 100 µM (inactive)	> 100 µM (inactive)	> 100 µM (inactive)
COC(=O)C1=C(C(=O)OC)N(c2ccncc2)C(c2ccco2)=CC1c1ccccc1[N+](=O)[O-] (stereo not given)	6.11 µM (inactive)	4.21 µM (inactive)	4.65 µM (inactive)	2.39 µM (inactive)	3.32 µM (inactive)	2.16 µM (inactive)	2.75 µM (inactive)	1.39 µM (inactive)	5.24 µM (inactive)	11.5 µM (inactive)	1.6 µM (inactive)	2.01 µM (inactive)	7.18 µM (inactive)	14.2 µM (inactive)	5.64 µM (inactive)	16.8 µM (inactive)	14.6 µM (inactive)	2.21 µM (inactive)	13.9 µM (inactive)	14.1 µM (inactive)
OCCCCCCOc1ccc(-c2cc(-c3ccccn3)nc(-c3ccccn3)c2)cc1	0.104 µM (active)	0.202 µM (active)	0.239 µM (active)	0.243 µM (active)	0.0877 µM (active)	0.0274 µM (active)	0.357 µM (active)	0.134 µM (active)	1.11 µM (active)	0.034 µM (active)	0.132 µM (active)	0.108 µM (active)	0.158 µM (active)	0.256 µM (active)	0.637 µM (active)	0.211 µM (active)	0.489 µM (active)	0.026 µM (active)	0.604 µM (active)	0.643 µM (active)
Cc1cc(C(O)CNC(C)CCn2cnc3c2c(=O)n(C)c(=O)n3C)ccc1O (stereo not given)	> 100 µM (inactive)	> 100 µM (inactive)	> 100 µM (inactive)	> 100 µM (inactive)	> 100 µM (inactive)	> 100 µM (inactive)	> 100 µM (inactive)	> 100 µM (inactive)	> 100 µM (inactive)	> 100 µM (inactive)	> 100 µM (inactive)	> 100 µM (inactive)	> 100 µM (inactive)	> 100 µM (inactive)	> 100 µM (inactive)	> 100 µM (inactive)	> 100 µM (inactive)	> 100 µM (inactive)	> 100 µM (inactive)	> 100 µM (inactive)

Reference: ChEMBL document CHEMBL1201862, “PubChem BioAssay data set” (2004)
